# Assay results published in ChEMBL document CHEMBL3425417, “Synthesis and Structure-Activity Relationship Study of 1-Phenyl-1-(quinazolin-4-yl)ethanols as Anticancer Agents” (ACS Med Chem Lett, 2015).
# Active and inactive are the calls of the source. The calls are words filed in the database; no cut-off is given here.
# Assays:
# [1] = tested on: A549; experiment: Cytotoxicity against human A549 cells assessed as growth inhibition after 72 hrs by CellTiter 96 Aqueous one solution cell proliferation assay; format: functional, cell-based; conditions: for IC50: A549, 72 h
# [2] = biological target: T1, Tubulin (Homo sapiens) (UniProt P68371+Q9H4B7+P0DPH7+P68366+Q13509+Q71U36+P04350+Q3ZCM7+P07437+P68363+Q9BQE3+Q6PEY2+Q13885+Q9BVA1+Q9BUF5); experiment: Displacement of colchicine from tubulin (unknown origin) preincubated for 30 mins followed by colchicine addition measured after 30 mins by fluorescence assay; format: protein-complex assay
# [3] = biological target: T1, Tubulin (Homo sapiens); experiment: Inhibition of tubulin (unknown origin) polymerization at 3 to 10 uM by fluorescence assay; format: protein-complex assay
# [4] = biological target: T1, Tubulin (Homo sapiens); conditions: 45 uM
# Description: Displacement of colchicine from tubulin (unknown origin) at 45 uM preincubated for 30 mins followed by colchicine addition measured after 30 mins by fluorescence assay
# [5] = tested on: A549; experiment: Induction of microtubule destabilization in human A549 cells at 4 uM by DAPI-staining-based fluorescence microscopic analysis; format: cell-based
# [6] = tested on: A549; experiment: Cell cycle arrest in human A549 cells assessed as accumulation at G2/M phase after 24 hrs by propidium iodide staining-based flow cytometric analysis; format: functional
# [7] = tested on: A549; experiment: Induction of microtubule destabilization in human A549 cells at 45 nM by DAPI-staining-based fluorescence microscopic analysis; format: cell-based
# [8] = biological target: T1, Tubulin (Homo sapiens); experiment: Inhibition of tubulin (unknown origin) polymerization at 10 uM by fluorescence assay; format: protein-complex assay
# [9] = tested on: A549; experiment: Cell cycle arrest in human A549 cells assessed as accumulation at G2/M phase at 3 uM after 24 hrs by propidium iodide staining-based flow cytometric analysis (reference value: 16.5%); format: functional
# [10] = tested on: NCI-H460; experiment: Cytotoxicity against human NCI-H460 cells assessed as growth inhibition after 72 hrs by CellTiter 96 Aqueous one solution cell proliferation assay; format: functional, cell-based; conditions: NCI-H460, 72 h
# [11] = tested on: A549; experiment: Cell cycle arrest in human A549 cells assessed as accumulation at G2/M phase at 1 uM after 24 hrs by propidium iodide staining-based flow cytometric analysis (reference value: 16.5%); format: functional
# [12] = tested on: A549; experiment: Cell cycle arrest in human A549 cells assessed as accumulation at G1 phase at 1 uM after 24 hrs by propidium iodide staining-based flow cytometric analysis (reference value: 75.9%); format: functional
# [13] = tested on: A549; experiment: Cell cycle arrest in human A549 cells assessed as accumulation at G1 phase at 3 uM after 24 hrs by propidium iodide staining-based flow cytometric analysis (reference value: 75.9%); format: functional
# [14] = Cytotoxicity against human HCT116 cells assessed as growth inhibition after 72 hrs by CellTiter 96 Aqueous one solution cell proliferation assay; format: functional, cell-based; conditions: HCT-116, 72 h
# [15] = tested on: A549; experiment: Cell cycle arrest in human A549 cells assessed as accumulation at G1 phase at 0.3 uM after 24 hrs by propidium iodide staining-based flow cytometric analysis (reference value: 75.9%); format: functional
# [16] = tested on: A549; experiment: Cell cycle arrest in human A549 cells assessed as accumulation at G2/M phase at 0.3 uM after 24 hrs by propidium iodide staining-based flow cytometric analysis (reference value: 16.5%); format: functional
# [17] = tested on: MCF7; experiment: Cytotoxicity against human MCF7 cells assessed as growth inhibition after 72 hrs by CellTiter 96 Aqueous one solution cell proliferation assay; format: functional, cell-based; conditions: MCF7, 72 h
# [18] = Cytotoxicity against human PC3 cells assessed as growth inhibition after 72 hrs by CellTiter 96 Aqueous one solution cell proliferation assay; format: functional, cell-based; conditions: PC-3, 72 h
# [19] = tested on: HeLa; experiment: Cytotoxicity against human HeLa cells assessed as growth inhibition after 72 hrs by CellTiter 96 Aqueous one solution cell proliferation assay; format: functional, cell-based
SMILES,IC50 [1] [µM],also measured
CC(O)(c1ccc(OC(F)(F)F)cc1)c1ncnc2ccccc12 (configuration not stated),> 25,
COc1cccc(C(C)(O)c2ncnc3ccccc23)c1 (configuration not stated),> 25,
CC(O)(c1ccccc1)c1ncnc2ccccc12 (configuration not stated),> 25,
COc1ccc(C(=O)c2ncnc3ccccc23)cc1,20,
COc1ccc(C(C)(O)c2nc(N3CCOCC3)nc3ccccc23)cc1 (configuration not stated),0.17,
CCOc1ccc(C(=O)c2ncnc3ccccc23)cc1,> 25,
COc1ccc(C(C)(O)c2nc(Nc3ccccc3)nc3ccccc23)cc1 (configuration not stated),2.7,
CC[C@]1(O)C[C@@H]2CN(CCc3c([nH]c4ccccc34)[C@@](C(=O)OC)(c3cc4c(cc3OC)N(C)[C@H]3[C@@](O)(C(=O)OC)[C@H](OC(C)=O)[C@]5(CC)C=CCN6CC[C@]43[C@@H]65)C2)C1,,inhibition [2]: inactive
COc1ccc(C(C)(O)c2ncnc3ccccc23)cc1 (stereo in doubt; (+)-1a),,growth inhibition (GI) [1]: Active; inhibition [3]: Active
COc1ccc(C(C)(O)c2nc(-c3ccc(Cl)cc3)nc3ccccc23)cc1 (configuration not stated),0.4,
CCOc1nc(C(C)(O)c2ccc(OC)cc2)c2ccccc2n1 (configuration not stated),0.34,
CCC(O)(c1ccc(OC)cc1)c1ncnc2ccccc12 (configuration not stated),1.8,
C=CCOc1nc(C(C)(O)c2ccc(OC)cc2)c2ccccc2n1 (configuration not stated),0.41,
COc1ccc(C(O)(Cc2ccccc2)c2ncnc3ccccc23)cc1 (configuration not stated),9.8,
CCOc1ccc(C(C)(O)c2ncnc3ccccc23)cc1 (configuration not stated),0.3,
COc1ccc(C(C)(O)c2nc(N3CCCCC3)nc3ccccc23)cc1 (configuration not stated),2.7,
CC(O)(c1cccc(O)c1)c1ncnc2ccccc12 (configuration not stated),> 25,
COC(=O)Nc1nc2cc(C(=O)c3cccs3)ccc2[nH]1,,inhibition [4]: Active
COc1ccc(C(C)(O)c2ncnc3ccccc23)cc1 (racemic) [listing 1 of 2 here],,Activity [5]: Active; Activity [6]: Dose-dependent effect; inhibition [2]: Dose-dependent effect; inhibition [3]: Active
COc1ccc(C(C)(O)c2nc(Oc3ccccc3)nc3ccccc23)cc1 (configuration not stated),3.3,
COc1ccc(C(C)(O)c2nc(C)nc3ccccc23)cc1 (configuration not stated),0.053,
COc1ccc(C(C)(O)c2nc(OC)c3ccccc3n2)cc1 (configuration not stated),2,
COc1ccc(C(C)(O)c2nc(-c3ccsc3)nc3ccccc23)cc1 (configuration not stated),0.035,
CC(O)(c1ccc(F)cc1)c1ncnc2ccccc12 (configuration not stated),> 25,
COc1ccc(C(C)(O)c2nc(-c3ccccc3Cl)nc3ccccc23)cc1 (configuration not stated),0.78,

SMILES,IC50 [1] [µM],also measured
CCCOc1nc(C(C)(O)c2ccc(OC)cc2)c2ccccc2n1 (configuration not stated),1.2,
COc1ccc(C(C)(O)c2nc(C(Cl)(Cl)Cl)nc3ccccc23)cc1 (configuration not stated),0.038,
COc1ccc(C(C)(O)c2nc(Cl)nc3ccccc23)cc1 (configuration not stated),0.027,
COc1ccc(C(O)c2ncnc3ccccc23)cc1 (configuration not stated),> 25,
COc1ccc(C(C)(O)c2nc(N3CCC(C)CC3)nc3ccccc23)cc1 (configuration not stated),19,
COc1cc2c(c(OC)c1OC)-c1ccc(OC)c(=O)cc1[C@@H](NC(C)=O)CC2,,Activity [7]: Active
CC(O)(c1cccc(OCc2ccccc2)c1)c1ncnc2ccccc12 (configuration not stated),> 25,
COc1ccc(C(C)(O)c2ncnc3ccccc23)cc1OC (configuration not stated),21,
COc1ccc(C(C)(O)c2nc(OC)nc3ccccc23)cc1 (configuration not stated),0.058,
CC(O)(c1ccc(Cl)cc1)c1ncnc2ccccc12 (configuration not stated),> 25,
COc1ccc(C(C)(O)c2nc(-c3cccc(Cl)c3)nc3ccccc23)cc1 (configuration not stated),2.1,
COc1ccc(C(C)(O)c2nc(-c3ccccc3)nc3ccccc23)cc1 (configuration not stated),0.1,inhibition [8]: Active
CC(O)(c1ccc(C(F)(F)F)cc1)c1ncnc2ccccc12 (configuration not stated),> 25,
COc1ccc(C(O)(c2ncnc3ccccc23)C(F)(F)F)cc1 (configuration not stated),1.1,
"COc1ccc(C(C)(O)c2ncnc3ccccc23)cc1 (single isomer, unassigned; (-))",,growth inhibition (GI) [1]: Active; inhibition [3]: Active
COc1ccc(C(C)(O)c2ncnc3ccccc23)cc1 (racemic) [listing 2 of 2 here],0.27,Activity [9]: 75.9%; IC50 [10]: 0.1 µM; Activity [11]: 68.6%; Activity [12]: 23.7%; Activity [13]: 18.3%; IC50 [14]: 0.1 µM; Activity [15]: 56.9%; Activity [16]: 35.3%; IC50 [17]: 0.1 µM; IC50 [18]: 0.1 µM; IC50 [19]: 0.1 µM
COc1ccc(C(C)(O)c2nc(N(C)C)nc3ccccc23)cc1 (configuration not stated),0.21,
CC(O)(c1ccc2c(c1)OCO2)c1ncnc2ccccc12 (configuration not stated),20,
CSc1ccc(C(C)(O)c2ncnc3ccccc23)cc1 (configuration not stated),0.34,
COc1ccc(C(C)(O)c2nc(SC)nc3ccccc23)cc1 (configuration not stated),0.067,
COc1ccc(C(C)(O)c2nc(=O)[nH]c3ccccc23)cc1 (configuration not stated),> 25,
COc1cc(C(C)(O)c2ncnc3ccccc23)cc(OC)c1OC (configuration not stated),> 25,
CNc1ccc(C(C)(O)c2ncnc3ccccc23)cc1 (configuration not stated),4.1,
CN(C)c1ccc(C(C)(O)c2ncnc3ccccc23)cc1 (configuration not stated),1.3,
COc1ccc(C(C)(O)c2nc(N3CCN(c4ccc(F)cc4)CC3)nc3ccccc23)cc1 (configuration not stated),1.9,
